In patent publication US12054470B2, “Photoswitchable dibenzothienylmethyl triphenylphosphonium derivatives and methods of treating cancer therewith” (Saint Louis University, priority 2018, dated 2024):

Key:
[1] = Water solubility; type: physicochemical
[2] = system: MDA-MB-231 breast cancer cells; assay: MTS cell viability assay with and without UV-A exposure; type: cell-based; details: compound added pre-UV exposure (UV-A 30 min), 100 μM and 10 μM, MTS after 24 h, vs. VC, n=4
Method: After 24 hours incubation at 37° C., varying concentrations of 2-TPPMDBTO were added and incubated for 1 hour at 37° C. One plate with cells were then left at room temperature covered for 15 minutes (cells without UV). The second plate was exposed to UV-A in a Luzchem photoreactor with 8 LZC-UVA lamps for 15 minutes (Cells with UV). Plates were then incubated for 24 hours at 37° C. and then a MTS cell viability assay (Promega) was performed. Cell viability assay was run on a Flexstation3 mulitmode plate reader and percent viability was calculated. Statistical analyses were performed using GraphPad Prism program.
FIGS. 6A-C show cell studies wherein MDA-MB-231 breast cancer cells were plated at 10,000 cells/well on three 96 well plates. After 24 hours incubation at 37° C., varying concentrations of MA-1 and MA-2 were added and incubated for 1 hour at 37° C. on only two plates (pre-UV and no UV exposure). One plate with cells were then left at room temperature covered for 30 min (no UV). The second plate (pre-UV) and the third plate (post-UV) were exposed to UV-A in a Luzchem photoreactor with 8 LZC-UVA lamps for 30 min. Varying concentrations of MA-1, MA-2, MA-3 and MA-4 were added to post UV plate after irradiation. […] Cell viability assay was run on a Flexstation3 mulitmode plate reader and percent viability was calculated. […]

[3] = system: cell cycle progression; assay: Cell cycle progression with, without or before UV-A irradiation; type: cell-based

Compound	water solubility [1]	% cell viability [2]	cell cycle progression / cell cycle arrest ([3]; compound administered in the absence of UV or after irradiation)	cell cycle progression / cell cycle arrest ([3]; compound administered in the absence of UV or after irradiation, listed as 1a)	cell cycle progression / cell cycle arrest ([3]; in the presence of UV-A irradiation)	cell cycle progression / cell cycle arrest ([3]; in the presence of UV-A irradiation, listed as 1a)
[O-][s+]1c2ccccc2c2cc(C[P+](c3ccccc3)(c3ccccc3)c3ccccc3)ccc21 (stereo not drawn) [MA-1, (5-oxo-2-dibenzothienylmethyl)triphenylphosphonium]	water soluble	–	–	–	–	–
(5-oxo-2-dibenzothienylmethyl)triphenylphosphonium [MA-1]	–	decrease in % cell viability is observed	the progression of the cell cycle is not arrested	no significant change in the progress was seen	cell cycle progression is arrested	presence of UV-A irradiation is necessary to lead to cell cycle arrest
